Test results as given in US20040077674A1, “Mappicine analogs, intermediates in the synthesis of mappicine analogs and methods of synthesis of mappicine analogs” (priority 2002, published 2004).

Target: T1, RNase H activity of HIV reverse transcriptase (Human immunodeficiency virus type 1 group M subtype B, UniProt P03366)
T1 construct: 2.5 nM of the p51/p66 RT heterodimer in the assay; made in house
Test: Fluorescence (FRET)-based RNase H assay of HIV reverse transcriptase
Assay type: biochemical, HIV-1
Settings: 20 μM inhibitor concentration
Experimental: Recently, a fluorescence-based assay to perform screens in search of HIV RNase H inhibitors has been developed. The assay, which is carried out in 96-well microplates and is adaptable to robotics, is the first high-throughput screen for RNase H and is described in further detail in the Experimental section. HIV-1 RT and human RNase H were cloned, and thus comparative analysis of inhibitor action could be conducted simultaneously.
The assay for RNase H activity of HIV reverse transcriptase was the fluorescence-based assay described in detail in the Experimental section and discussed in U.S. Provisional Patent Application Serial No. 60/318,359. Assays were carried out in the absence and in the presence of mappicine analogs (10 μM or 20 μM final concentration). The results are reported as % residual activity, which is the RNase H activity of the enzyme in the presence of the mappicine analog divided by the RNase H activity of the enzyme in the absence of the mappicine analog, multiplied by 100. Alternatively, the results are reported as % inhibition, which is calculated as the ratio of the RNase H activity of the enzyme in the presence of the mappicine analog to the enzyme activity in the absence of the mappicine analog, multiplied by 100, and then subtracting this number from 100.
Assay for Ribonuclease H Activity Based on Fluorescence Resonance Energy Transfer (FRET)
Preparation of the Fluorophore-RNA/Quencher-DNA Hybrid Duplex Substrate.
The RNA/DNA hybrid duplex substrate for use in the assay comprises an RNA oligonucleotide of sequence 5′-GAU CUG AGC CUG GGA GCU-3′, modified at the 3′-end with Aminolink-2 and derivatized with fluorescein isothiocyanate, to provide a modified RNA oligonucleotide of the sequence 5′-GAU CUG AGC CUG GGA GCU-fluorescein-3′, annealed to a complementary DNA oligonucleotide of the sequence 5′-AGC TCC CAG GCT CAG ATC-3′ modified at the 5′-end with Aminolink-2 and derivatized with the FRET acceptor DABCYL succinimidyl ester, to provide a modified DNA oligonucleotide of the sequence 5′-DABCYL-AGC TCC CAG GCT CAG ATC-3′.
To prepare the 3′-fluorescein-RNA/5′-DABCYL-DNA hybrid duplex substrate, a known amount of 3′-fluorescein-RNA was dissolved in 20 mM Tris buffer (pH 8.0, 37° C.) to provide a final concentration of 5 μM. Two equivalents of the 5′-DABCYL-DNA oligonucleotide were added, and the mixture was heated to 90° C. for 5 min and cooled slowly to room temperature to allow duplex formation. The positioning of the fluorescein donor at the 3′-end of the RNA oligonucleotide and the DABCYL acceptor at the 5′-end of the DNA oligonucleotide provides a very close proximity of the donor and acceptor that results in a very intense quenching of the fluorescein emission in the intact RNA/DNA hybrid duplex substrate due to the spectral overlap of the fluorescence emission of fluorescein with the absorption spectrum of DABCYL. In addition, DABCYL is non-fluorescent, and thus cannot contribute any light emission. Both of these factors result in a very low background and provide a high signal-to-noise in the assay measurements. The ratio of the donor fluorescence in the absence and in the presence of its quencher is approximately fifteen-fold.
Microplate Assay Protocol for the Measurement of RNase H Activity Using the RNA/IDNA Hybrid Duplex Substrate.
Reaction assay mixtures contained 5 μl of a stock solution of 2.5 μM RNA/DNA hybrid duplex substrate added to 85 μl of assay buffer (50 mM Tris, pH 8.0, 37° C., containing 60 mM KCl and 2.5 mM MgCl2), prepared in the wells of a 96-well fluorescence microtiter plate, and warmed to 37° C. using the temperature control of the SpectraMax Gemini XS microplate spectrofluorometer (Molecular Devices). Reactions were started by the addition of 5 μl of a solution of recombinant HIV-1 reverse transcriptase (usually providing a final concentration of 2.5 nM of the p51/p66 RT heterodimer in the assay), and mixing using the automatic mixing function of the microplate spectrofluorometer. […]

| Structure (SMILES) | inhibition at 20 µM | % inhibition of RNase H at 20 μM |
| --- | --- | --- |
| CCCCc1c2c(nc3ccc(OC(F)(F)F)cc13)-c1cc(C(C)O)c(C)c(=O)n1C2 (centres unmarked) [Compound 1.6.7, 12-Butyl-7-(1-hydroxyethyl)-8-methyl-2-trifluoromethoxy-11H-indolizino[1,2-b]quinolin-9-one] | 75% |  |
| Cc1c(C(C)O)cc2n(c1=O)Cc1c-2nc2ccc(OC(F)(F)F)cc2c1-c1ccccc1 (centres unmarked) [Compound 1.8.7, 7-(1-Hydroxyethyl)-8-methyl-12-phenyl-2-trifluoromethoxy-11H-indolizino[1,2-b]quinolin-9-one] | 80% |  |
| Cc1ccc2nc3c(c(-c4ccccc4)c2c1)Cn1c-3cc(C(C)O)c(C)c1=O (centres unmarked) [Compound 1.8.9, 7-(1-Hydroxyethyl)-2,8-dimethyl-1 2-phenyl-11H-indolizino[1,2-b]quinolin-9-one] | 75% |  |
| CCCCc1c2c(nc3ccc(OC)cc13)-c1cc(C(O)CCC)c(C)c(=O)n1C2 (centres unmarked) [Compound 2.6.3] |  | 67% |
| CCCCCc1c2c(nc3ccc(OC)cc13)-c1cc(C(O)CCC)c(C)c(=O)n1C2 (centres unmarked) [Compound 2.7.3] |  | 60% |
| CCCC(O)c1cc2n(c(=O)c1C)Cc1c-2nc2ccccc2c1-c1ccccc1 (centres unmarked) [Compound 2.8.1, 7-(1-Hydroxybutyl)-8-methyl-12-phenyl-11H-indolizino [1,2-b]quinolin-9-one] | 83% |  |
| CCCC(O)c1cc2n(c(=O)c1C)Cc1c-2nc2ccc(C)cc2c1-c1ccccc1 (centres unmarked) [Compound 2.8.9, 7-(1-Hydroxybutyl)-2,8-dimethyl-1 2-phenyl-11H-indolizino[1,2-b]quinolin-9-one] | 78% |  |
| CCCCc1c2c(nc3ccc(OC)cc13)-c1cc(C(O)CC)c(C)c(=O)n1C2 (centres unmarked) [Compound 3.6.3] |  | 66% |
| CCCCc1c2c(nc3ccc(C(F)(F)F)cc13)-c1cc(C(O)CC)c(C)c(=O)n1C2 (centres unmarked) [Compound 3.6.4] |  | 62% |
| CCCCCc1c2c(nc3c(F)cccc13)-c1cc(C(O)CC)c(C)c(=O)n1C2 (centres unmarked) [Compound 3.7.8, 4-Fluoro-7-(1-hydroxypropyl)-8-methyl-12-pentyl-1 1H-indolizino [1,2-b]quinolin-9-one] | 82% |  |
| CCCCCc1c2c(nc3ccc(C)cc13)-c1cc(C(O)CC)c(C)c(=O)n1C2 (centres unmarked) [Compound 3.7.9, 7-(1-Hydroxypropyl)-2,8-dimethyl-1 2-pentyl-11H-indolizino[1,2-b]quinolin-9-one] | 75% |  |
| CCC(O)c1cc2n(c(=O)c1C)Cc1c-2nc2ccccc2c1-c1ccccc1 (centres unmarked) [Compound 3.8.1] |  | 74% |
| CCC(C)C(O)c1cc2n(c(=O)c1C)Cc1cc3cc(OC(F)(F)F)ccc3nc1-2 (centres unmarked) [Compound 4.1.7] |  | 55% |
| CCc1c2c(nc3ccc(C)cc13)-c1cc(C(O)C(C)CC)c(C)c(=O)n1C2 (centres unmarked) [Compound 4.4.9] |  | 60% |
| CCCc1c2c(nc3c(F)cccc13)-c1cc(C(O)C(C)CC)c(C)c(=O)n1C2 (centres unmarked) [Compound 4.5.8] |  | 55% |
| CCCCCc1c2c(nc3ccc(F)cc13)-c1cc(C(O)C(C)CC)c(C)c(=O)n1C2 (centres unmarked) [Compound 4.7.2] |  | 58% |
| CCCCCc1c2c(nc3ccc(OC)cc13)-c1cc(C(O)C(C)CC)c(C)c(=O)n1C2 (centres unmarked) [Compound 4.7.3] |  | 60% |
| CCCCCc1c2c(nc3ccc(C(F)(F)F)cc13)-c1cc(C(O)C(C)CC)c(C)c(=O)n1C2 (centres unmarked) [Compound 4.7.4] |  | 55% |
| CCCCCc1c2c(nc3ccc(CC)cc13)-c1cc(C(O)C(C)CC)c(C)c(=O)n1C2 (centres unmarked) [Compound 4.7.5, 2-Ethyl-7-(1-hydroxy-2-methylbutyl)-8-methyl-1 2-pentyl-11H-indolizino[1,2-b]quinolin-9-one] | 100% |  |

| Structure (SMILES) | inhibition at 20 µM | % inhibition of RNase H at 20 μM |
| --- | --- | --- |
| CCC(C)C(O)c1cc2n(c(=O)c1C)Cc1c-2nc2ccccc2c1-c1ccccc1 (centres unmarked) [Compound 4.8.1, 7-(1-Hydroxy-2-methylbutyl)-8-methyl-1 2-phenyl-11H-indolizino[1,2-b]quinolin-9-one] | 80% |  |
| CCC(C)C(O)c1cc2n(c(=O)c1C)Cc1c-2nc2ccc(C(F)(F)F)cc2c1-c1ccccc1 (centres unmarked) [Compound 4.8.4] |  | 74% |
| CCC(C)C(O)c1cc2n(c(=O)c1C)Cc1c-2nc2ccc(C)cc2c1-c1ccccc1 (centres unmarked) [Compound 4.8.9] |  | 55% |
| CCc1c2c(nc3ccc(C(F)(F)F)cc13)-c1cc(C(O)C(C)C)c(C)c(=O)n1C2 (centres unmarked) [Compound 5.4.4, 1 2-Ethyl-7-(1-hydroxy-2-methylpropyl)-8-methyl-2-trifluoromethyl-11H-indolizino[1,2-b]quinolin-9-one] | 87% |  |
| CCCCc1c2c(nc3c1cn1c(=O)c(C)c(C(O)C(C)C)cc31)=CC=C(OC)C2 (centres unmarked) [Compound 5.6.3, 12-Butyl-7-(1-hydroxy-2-methylpropyl)-2-methoxy-8-methyl-1H-indolizino[1,2-b]quinolin-9-one] | 90% |  |
| CCCCc1c2c(nc3ccc(CC)cc13)-c1cc(C(O)C(C)C)c(C)c(=O)n1C2 (centres unmarked) [Compound 5.6.5] |  | 100% |
| Cc1ccc2nc3c(c(-c4ccccc4)c2c1)Cn1c-3cc(C(O)C(C)C)c(C)c1=O (centres unmarked) [Compound 5.8.9] |  | 69% |
| Cc1ccc2nc3c(cc2c1)Cn1c-3cc(C(O)C2CCCCC2)c(C)c1=O (centres unmarked) [Compound 6.1.9] |  | 65% |
| CCc1c2c(nc3ccccc13)-c1cc(C(O)C3CCCCC3)c(C)c(=O)n1C2 (centres unmarked) [Compound 6.4.1] |  | 65% |
| CCc1c2c(nc3ccc(F)cc13)-c1cc(C(O)C3CCCCC3)c(C)c(=O)n1C2 (centres unmarked) [Compound 6.4.2] |  | 75% |
| CCc1c2c(nc3ccc(OC)cc13)-c1cc(C(O)C3CCCCC3)c(C)c(=O)n1C2 (centres unmarked) [Compound 6.4.3] |  | 60% |
| CCc1c2c(nc3ccc(C(F)(F)F)cc13)-c1cc(C(O)C3CCCCC3)c(C)c(=O)n1C2 (centres unmarked) [Compound 6.4.4] |  | 65% |
| CCCCCc1c2c(nc3ccccc13)-c1cc(C(O)C3CCCCC3)c(C)c(=O)n1C2 (centres unmarked) [Compound 6.7.1] |  | 71% |
| CCCCCc1c2c(nc3ccc(F)cc13)-c1cc(C(O)C3CCCCC3)c(C)c(=O)n1C2 (centres unmarked) [Compound 6.7.2, 7-(Cyclohexylhydroxymethyl)-2-fluoro-8-methyl-12-pentyl-11H-indolizino[1,2-b]quinolin-9-one] | 76% |  |
| CCCCCc1c2c(nc3ccc(OC)cc13)-c1cc(C(O)C3CCCCC3)c(C)c(=O)n1C2 (centres unmarked) [Compound 6.7.3] |  | 65% |
| CCCCCc1c2c(nc3ccc(C(F)(F)F)cc13)-c1cc(C(O)C3CCCCC3)c(C)c(=O)n1C2 (centres unmarked) [Compound 6.7.4] |  | 70% |
| Cc1c(C(O)C2CCCCC2)cc2n(c1=O)Cc1c-2nc2ccc(C(F)(F)F)cc2c1-c1ccccc1 (centres unmarked) [Compound 6.8.4, 7-(Cyclohexylhydroxymethyl)-8-methyl-12-phenyl-2-trifluoromethyl-11H-indolizino[1,2-b]quinolin-9-one] | 81% |  |
| Cc1c(C(O)C2CCCCC2)cc2n(c1=O)Cc1c-2nc2ccc(OC(F)(F)F)cc2c1-c1ccccc1 (centres unmarked) [Compound 6.8.7, 7-(Cyclohexylhydroxymethyl)-8-methyl-1 2-phenyl-2-trifluoromethoxy-11H-indolizino[1,2-b]quinolin-9-one] | 87% |  |
| CCc1c2c(nc3c(F)cccc13)-c1cc(C(O)CCC3CCCCC3)c(C)c(=O)n1C2 (centres unmarked) [Compound 7.4.8] |  | 95% |
